Test results published in patent US12122767B2, “Bicyclic heterocycles as FGFR inhibitors” (Incyte Corporation, priority 2019, dated 2024).

target: T1, FGFR3 enzyme (Millipore) (Homo sapiens, UniProt P22607); experiment: FGFR Enzymatic Assay (peptide phosphorylation, FRET); format: biochemical; conditions: pre-incubated for 4 hours; ATP 140 μM, peptide 500 nM
T1 construct: purchased Millipore
Protocol: The inhibitor potency of the exemplified compounds was measured in an enzyme assay that measures peptide phosphorylation using FRET measurements to detect product formation. Inhibitors were serially diluted in DMSO and a volume of 0.5 μL was transferred to the wells of a 384-well plate. For FGFR3, a 10 μL volume of FGFR3 enzyme (Millipore) diluted in assay buffer (50 mM HEPES, 10 mM MgCl2, 1 mM EGTA, 0.01% Tween-20, 5 mM DTT, pH 7.5) was added to the plate and pre-incubated for a time between 5-10 minutes and up to 4 hours. Appropriate controls (enzyme blank and enzyme with no inhibitor) were included on the plate. The assay was initiated by the addition of a 10 μL solution containing biotinylated EQEDEPEGDYFEWLE peptide substrate (SEQ ID NO: 1) and ATP (final concentrations of 500 nM and 140 μM respectively) in assay buffer to the wells. The plate was incubated at 25° C. for 1 hr. The reactions were ended with the addition of 10 μL/well of quench solution (50 mM Tris, 150 mM NaCl, 0.5 mg/mL BSA, pH 7.8; 30 mM EDTA with Perkin Elmer Lance Reagents at 3.75 nM Eu-antibody PY20 and 180 nM APC-Streptavidin). The plate was allowed to equilibrate for ˜1 hr before scanning the wells on a PheraStar plate reader (BMG Labtech).
GraphPad prism3 was used to analyze the data. The IC50 values were derived by fitting the data to the equation for a sigmoidal dose-response with a variable slope. Y=Bottom+(Top-Bottom)/(1+10^((Log IC50−X)*HillSlope)) where X is the logarithm of concentration and Y is the response.
Table 1 provides IC50 data for compounds of the invention assayed in the FGFR Enzymatic Assay after dilution in assay buffer, added to the plate and pre-incubated for 4 hours.

T1 sequence (P22607 23-806): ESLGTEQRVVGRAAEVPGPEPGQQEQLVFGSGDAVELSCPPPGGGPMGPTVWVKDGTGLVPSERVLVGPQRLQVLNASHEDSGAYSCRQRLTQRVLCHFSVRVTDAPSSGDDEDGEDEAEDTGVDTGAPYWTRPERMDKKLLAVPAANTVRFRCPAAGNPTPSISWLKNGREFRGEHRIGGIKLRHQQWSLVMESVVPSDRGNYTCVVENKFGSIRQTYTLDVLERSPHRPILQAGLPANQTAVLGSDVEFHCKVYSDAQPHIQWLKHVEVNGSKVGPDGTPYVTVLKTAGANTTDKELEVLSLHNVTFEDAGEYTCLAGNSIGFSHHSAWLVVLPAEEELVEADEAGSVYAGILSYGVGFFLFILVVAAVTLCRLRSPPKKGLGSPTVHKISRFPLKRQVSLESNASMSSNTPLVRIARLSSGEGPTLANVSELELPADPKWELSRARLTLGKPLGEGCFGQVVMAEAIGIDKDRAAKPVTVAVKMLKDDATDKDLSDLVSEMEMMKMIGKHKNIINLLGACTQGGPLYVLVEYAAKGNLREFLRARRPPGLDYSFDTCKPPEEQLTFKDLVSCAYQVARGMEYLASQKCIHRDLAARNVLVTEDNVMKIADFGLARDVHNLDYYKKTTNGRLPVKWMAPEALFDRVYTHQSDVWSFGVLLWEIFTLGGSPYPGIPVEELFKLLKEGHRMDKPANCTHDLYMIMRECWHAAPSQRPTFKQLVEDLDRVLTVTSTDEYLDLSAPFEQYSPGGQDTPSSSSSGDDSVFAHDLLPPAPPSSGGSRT

IC50	SMILES
30 to 200 nM	COc1cc2[nH]nc(-c3cnn(-c4ccccn4)c3)c2cc1C(=O)Nc1c(C)cccc1C [Example 42, N-(2,6-Dimethylphenyl)-6-methoxy-3-(1-(pyridin-2-yl)-1H-pyrazol-4-yl)-1H-indazole-5-carboxamide]
< 10 nM	COc1cc2[nH]nc(-c3cnn(C4CCN(C)CC4)c3)c2cc1C(=O)Nc1c(C)cccc1C [Example 34, N-(2,6-Dimethylphenyl)-6-methoxy-3-(1-(1-methylpiperidin-4-yl)-1H-pyrazol-4-yl)-1H-indazole-5-carboxamide]
30 to 200 nM	COc1cc(C)c(NC(=O)c2cc3c(-c4cnn(C)c4)n[nH]c3cc2OC)c(C)c1 [Example 10, 6-Methoxy-N-(4-methoxy-2,6-dimethylphenyl)-3-(1-methyl-1H-pyrazol-4-yl)-1H-indazole-5-carboxamide]
30 to 200 nM	COc1cc2[nH]nc(-c3cnn(C)c3)c2cc1C(=O)Nc1c(C)cccc1OC [Example 9, 6-Methoxy-N-(2-methoxy-6-methylphenyl)-3-(1-methyl-1H-pyrazol-4-yl)-1H-indazole-5-carboxamide]
< 10 nM	CCOC(=O)N1CC(n2cc(-c3n[nH]c4cc(OC)c(C(=O)Nc5c(C)cccc5C)cc34)cn2)C1 [Example 23, Ethyl 3-(4-(5-((2,6-Dimethylphenyl)carbamoyl)-6-methoxy-1H-indazol-3-yl)-1H-pyrazol-1-yl)azetidine-1-carboxylate]
< 10 nM	COc1cc2[nH]nc(-c3cnn(C)c3)c2cc1C(=O)Nc1c(C)cccc1F [Example 8, N-(2-Fluoro-6-methylphenyl)-6-methoxy-3-(1-methyl-1H-pyrazol-4-yl)-1H-indazole-5-carboxamide]
< 10 nM	COc1cc2[nH]nc(-c3cnn(C)c3)c2cc1C(=O)Nc1c(C)cccc1Cl [Example 3, N-(2-Chloro-6-methylphenyl)-6-methoxy-3-(1-methyl-1H-pyrazol-4-yl)-1H-indazole-5-carboxamide]
10 to 30 nM	COc1cc2[nH]nc(-c3cnn(C)c3)c2cc1C(=O)Nc1c(C)cc(C#N)cc1C [Example 11, N-(4-Cyno-2,6-dimethylphenyl)-6-methoxy-3-(1-methyl-1H-pyrazol-4-yl)-1H-indazole-5-carboxamide]
10 to 30 nM	COc1cc2[nH]nc(-c3cnn(CC4CCNCC4)c3)c2cc1C(=O)Nc1c(C)cccc1C [Example 39, N-(2,6-Dimethylphenyl)-6-methoxy-3-(1-(piperidin-4-ylmethyl)-1H-pyrazol-4-yl)-1H-indazole-5-carboxamide]
< 10 nM	COc1cc2[nH]nc(-c3cnn(C4CN(C(C)=O)C4)c3)c2cc1C(=O)Nc1c(C)cccc1C [Example 33, 3-(1-(1-Acetylazetidin-3-yl)-1H-pyrazol-4-yl)-N-(2,6-dimethylphenyl)-6-methoxy-1H-indazole-5-carboxamide]
30 to 200 nM	Cc1cccc(C)c1NC(=O)c1cc2c(-c3cnn(C)c3)n[nH]c2cc1Cl [Example 13, 6-Chloro-N-(2,6-dimethylphenyl)-3-(1-methyl-1H-pyrazol-4-yl)-1H-indazole-5-carboxamide]
< 10 nM	CCNC(=O)N1CC(n2cc(-c3n[nH]c4cc(OC)c(C(=O)Nc5c(C)cccc5C)cc34)cn2)C1 [Example 30, N-(2,6-Dimethylphenyl)-3-(1-(1-(ethylcarbamoyl)azetidin-3-yl)-1H-pyrazol-4-yl)-6-methoxy-1H-indazole-5-carboxamide]
< 10 nM	COC(=O)N1CCC(n2cc(-c3n[nH]c4cc(OC)c(C(=O)Nc5c(C)cccc5C)cc34)cn2)CC1 [Example 24, Methyl 4-(4-(5-((2,6-dimethylphenyl)carbamoyl)-6-methoxy-1H-indazol-3-yl)-1H-pyrazol-1-yl)piperidine-1-carboxylate]
